What was measured:
FimH-CRD [1] = molecular target: T1, FimH-CRD (Escherichia coli, UniProt P08191); test: Competitive binding assay by fluorescence polarization, assay 1 (compounds prepared by manual serial dilution)
T1 construct: The first 177 amino acids of the FimH protein; thrombin tag (printed as 'fusion protein with thrombin') (cleaved yes); made in house; host or cells: bacteria (pET21b plasmid)
Summary of the method: (§1)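 Fluorescence-polarization competition of 5 nM Alexa 647 mannoside probe with 60 nM FimH-CRD (first 177 residues, tag removed) in Tris-Cl pH 7.0, NaCl, EDTA, β-ME, BSA, 2.5% DMSO, 5 h at RT in the dark. Twelve-point 3-fold titrations (0.4 nM–75 μM) in duplicate; Kd interpolated from displacement curves.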

FimH-CRD [2] = molecular target: T1, FimH-CRD; test: Competitive binding assay by fluorescence polarization, assay 2 (compounds prepared by robotics, plates frozen and thawed)
Summary of the method: as §1

T1 sequence (P08191 22-177): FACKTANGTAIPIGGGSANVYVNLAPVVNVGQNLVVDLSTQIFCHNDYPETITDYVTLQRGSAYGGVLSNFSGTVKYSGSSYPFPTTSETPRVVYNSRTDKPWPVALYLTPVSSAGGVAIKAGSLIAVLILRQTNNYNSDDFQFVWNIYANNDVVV

`Cn1cnc2ccc(-c3cccc([C@H]4O[C@H](CO)[C@@H](O)[C@H](O)[C@@H]4O)c3)cc21` [Compound 4, (2R,3S,4R,5S,6R)-2-(hydroxymethyl)-6-[3-(3-methylbenzimidazol-5-yl)phenyl]tetrahydropyran-3,4,5-triol] showed an IC50 (FimH-CRD [1]) of 19 nM, a Kd (FimH-CRD [1]) of 5.1 ± 0.1 nM and a Kd (FimH-CRD [2]) of 13.6 ± 6.1 nM.

Compound `OC[C@H]1O[C@H](c2cccc(-c3cncnc3)c2)[C@@H](O)[C@@H](O)[C@@H]1O` [Compound 10, (2R,3S,4R,5S,6R)-2-(hydroxymethyl)-6-(3-pyrimidin-5-ylphenyl)tetrahydropyran-3,4,5-triol] has an IC50 (FimH-CRD [1]) of 99 nM, a Kd (FimH-CRD [1]) of 13.4 ± 6.6 nM and a Kd (FimH-CRD [2]) of 10.1 ± 0.6 nM.

`OC[C@H]1O[C@H](c2cccc(-c3cc4ccccc4s3)c2)[C@@H](O)[C@@H](O)[C@@H]1O` [Compound 12, (2R,3S,4R,5S,6R)-2-[3-(benzothiophen-2-yl)phenyl]-6-(hydroxymethyl)tetrahydropyran-3,4,5-triol] showed an IC50 (FimH-CRD [1]) of 67 nM, a Kd (FimH-CRD [1]) of 9.2 ± 4.4 nM and a Kd (FimH-CRD [2]) of 11.7 ± 6.1 nM.

For `N#Cc1ccc(-c2cccc([C@H]3O[C@H](CO)[C@@H](O)[C@H](O)[C@@H]3O)c2)cc1` [Compound 22, 3′-((2R,3S,4R,5S,6R)-3,4,5-trihydroxy-6-(hydroxymethyl)tetrahydro-2H-pyran-2-yl)-[1,1′-biphenyl]-4-carbonitrile], the IC50 (FimH-CRD [1]) was 49 nM, the Kd (FimH-CRD [1]) was 6.6 ± 0.8 nM and the Kd (FimH-CRD [2]) was 14.2 ± 11.1 nM.

`CNC(=O)c1cccc([C@H]2O[C@H](CO)[C@@H](O)[C@H](O)[C@@H]2O)c1` [Compound 35, N-methyl-3-((2R,3S,4R,5S,6R)-3,4,5-trihydroxy-6-(hydroxymethyl)tetrahydro-2H-pyran-2-yl)benzamide] showed an IC50 (FimH-CRD [1]) of 172 nM, a Kd (FimH-CRD [1]) of 56.2 ± 4.9 nM and a Kd (FimH-CRD [2]) of 113 nM.

Work on `CCCCNC(=O)c1cccc([C@H]2O[C@H](CO)[C@@H](O)[C@H](O)[C@@H]2O)c1` [Compound 38, N-butyl-3-((2R,3S,4R,5S,6R)-3,4,5-trihydroxy-6-(hydroxymethyl)tetrahydro-2H-pyran-2-yl)benzamide] yielded a Kd (FimH-CRD [1]) of 50.4 ± 3.6 nM and a Kd (FimH-CRD [2]) of 72.4 ± 34.8 nM.

`CNC(=O)c1cc(C(=O)NC)cc(-c2ccccc2[C@H]2O[C@H](CO)[C@@H](O)[C@H](O)[C@@H]2O)c1` [Compound 40, N^3,N^5-dimethyl-2′-((2R,3S,4R,5S,6R)-3,4,5-trihydroxy-6-(hydroxymethyl)tetrahydro-2H-pyran-2-yl)-[1,1′-biphenyl]-3,5-dicarboxamide] was tested, and the IC50 (FimH-CRD [1]) was 2050 nM, the Kd (FimH-CRD [1]) was 474 ± 49.5 nM and the Kd (FimH-CRD [2]) was 447 ± 490 nM.

Compound `COc1cccc([C@H]2O[C@H](CO)[C@@H](O)[C@H](O)[C@@H]2O)c1` [Compound 44, (2R,3S,4R,5S,6R)-2-(hydroxymethyl)-6-(3-methoxyphenyl)tetrahydropyran-3,4,5-triol] has an IC50 (FimH-CRD [1]) of 156 nM, a Kd (FimH-CRD [1]) of 41.8 ± 11.6 nM and a Kd (FimH-CRD [2]) of 50.4 ± 10.1 nM.

With `Cc1nnc(-c2ccc(-c3cccc([C@H]4O[C@H](CO)[C@@H](O)[C@H](O)[C@@H]4O)c3)cc2)o1` [Compound 48, (2R,3S,4R,5S,6R)-2-(hydroxymethyl)-6-[3-[4-(5-methyl-1,3,4-oxadiazol-2-yl)phenyl]phenyl]tetrahydropyran-3,4,5-triol] the IC50 (FimH-CRD [1]) was 34 nM, the Kd (FimH-CRD [1]) was < 5 nM and the Kd (FimH-CRD [2]) was 8.5 ± 1.3 nM.

In the case of `COC(=O)c1cc(Oc2ccc([C@H]3O[C@H](CO)[C@@H](O)[C@H](O)[C@@H]3O)cc2)cc(C(=O)OC)c1` [Compound 53, dimethyl 5-(4-((2R,3S,4R,5S,6R)-3,4,5-trihydroxy-6-(hydroxymethyl)tetrahydro-2H-pyran-2-yl)phenoxy)isophthalate], the IC50 (FimH-CRD [1]) is reported as 25 nM, the Kd (FimH-CRD [1]) is reported as < 5 nM and the Kd (FimH-CRD [2]) is reported as 15.7 ± 10.2 nM.

For `COC(=O)c1ccc(Oc2ccc([C@H]3O[C@H](CO)[C@@H](O)[C@H](O)[C@@H]3O)cc2)cc1` [Compound 54, methyl 4-(4-((2R,3S,4R,5S,6R)-3,4,5-trihydroxy-6-(hydroxymethyl)tetrahydro-2H-pyran-2-yl)phenoxy)benzoate], the IC50 (FimH-CRD [1]) was 16 nM, the Kd (FimH-CRD [1]) was < 5 nM and the Kd (FimH-CRD [2]) was 13.2 ± 9.2 nM.

`Cc1nnc(-c2ccc(Oc3cccc([C@H]4O[C@H](CO)[C@@H](O)[C@H](O)[C@@H]4O)c3)cc2)o1` [Compound 60, (2R,3S,4R,5S,6R)-2-(hydroxymethyl)-6-[3-[4-(5-methyl-1,3,4-oxadiazol-2-yl)phenoxy]phenyl]tetrahydropyran-3,4,5-triol] was tested, and the IC50 (FimH-CRD [1]) was 31 nM, the Kd (FimH-CRD [1]) was 8.7 ± 2.1 nM and the Kd (FimH-CRD [2]) was 10.7 ± 5.3 nM.

In the case of `COC(=O)c1cc(C(=O)OC)cc(-c2cccc([C@H]3O[C@H](CO)[C@@H](O)[C@H](O)[C@@H]3O)c2)c1` [Compound 62, Dimethyl 3′-((2R,3S,4R,5S,6R)-3,4,5-trihydroxy-6-(hydroxymethyl)tetrahydro-2H-pyran-2-yl)-[1,1′-biphenyl]-3,5-dicarboxylate], the Kd (FimH-CRD [1]) is reported as 5.5 ± 0.4 nM and the Kd (FimH-CRD [2]) is reported as 7.6 ± 2 nM.

`CNC(=O)c1cc(Oc2cccc([C@H]3O[C@H](CO)[C@@H](O)[C@H](O)[C@@H]3O)c2)cc(C(=O)NC)c1` [Compound 64, N1,N3-dimethyl-5-(3-((2R,3S,4R,5S,6R)-3,4,5-trihydroxy-6-(hydroxymethyl)tetrahydro-2H-pyran-2-yl)phenoxy)isophthalamide] gave an IC50 (FimH-CRD [1]) of 55 nM, a Kd (FimH-CRD [1]) of 15 ± 2.6 nM and a Kd (FimH-CRD [2]) of 20.7 ± 16.8 nM.

In the case of `OC[C@H]1O[C@H](c2cc(O)ccc2Cl)[C@@H](O)[C@@H](O)[C@@H]1O` [Compound 68, (2R,3S,4R,5S,6R)-2-(2-chloro-5-hydroxyphenyl)-6-(hydroxymethyl)tetrahydro-2H-pyran-3,4,5-triol], the IC50 (FimH-CRD [1]) is reported as 22 nM, the Kd (FimH-CRD [1]) is reported as 22.1 ± 10.1 nM and the Kd (FimH-CRD [2]) is reported as 35 ± 21.2 nM.

With `OC[C@H]1O[C@H](c2cccc(-c3cc(Cl)cc(Cl)c3)c2)[C@@H](O)[C@@H](O)[C@@H]1O` [Compound 79, (2R,3S,4R,5S,6R)-2-[3-(3,5-Dichlorophenyl)phenyl]-6-(hydroxymethyl)tetrahydropyran-3,4,5-triol] the Kd (FimH-CRD [1]) was < 5 nM and the Kd (FimH-CRD [2]) was 12.8 ± 0.9 nM.

With `Cc1nnc(-c2cccc(-c3ccc([C@H]4O[C@H](CO)[C@@H](O)[C@H](O)[C@@H]4O)cc3)c2)o1` [Compound 130, (2R,3S,4R,5S,6R)-2-(hydroxymethyl)-6-[4-[3-(5-methyl-1,3,4-oxadiazol-2-yl)phenyl]phenyl]tetrahydropyran-3,4,5-triol] the Kd (FimH-CRD [1]) was < 5 nM and the Kd (FimH-CRD [2]) was 46.2 nM.

For `OCc1cccc([C@H]2O[C@H](CO)[C@@H](O)[C@H](O)[C@@H]2O)c1` [Compound 260, (2R,3S,4R,5S,6R)-2-(hydroxymethyl)-6-[3-(hydroxymethyl)phenyl]tetrahydropyran-3,4,5-triol], the Kd (FimH-CRD [2]) was 125 ± 52.6 nM.

Work on `COC(=O)c1ccc(OCc2cccc([C@H]3O[C@H](CO)[C@@H](O)[C@H](O)[C@@H]3O)c2)cc1` [Compound 261, methyl 4-[[3-[(2R,3S,4R,5S,6R)-3,4,5-trihydroxy-6-(hydroxymethyl)tetrahydropyran-2-yl]phenyl]methoxy]benzoate] yielded a Kd (FimH-CRD [2]) of 32.2 ± 8.1 nM.

With `OC[C@H]1O[C@H](c2cccc(COc3ccccc3)c2)[C@@H](O)[C@@H](O)[C@@H]1O` [Compound 262, (2R,3S,4R,5S,6R)-2-(hydroxymethyl)-6-[3-(phenoxymethyl)phenyl]tetrahydropyran-3,4,5-triol] the Kd (FimH-CRD [2]) was 26.6 ± 11.4 nM.

For `OC[C@H]1O[C@H](c2cccc(COc3cc(Cl)cc(Cl)c3)c2)[C@@H](O)[C@@H](O)[C@@H]1O` [Compound 263, (2R,3S,4R,5S,6R)-2-[3-[(3,5-dichlorophenoxy)methyl]phenyl]-6-(hydroxymethyl)tetrahydropyran-3,4,5-triol], the Kd (FimH-CRD [2]) was 22.3 ± 5 nM.

Compound `CNC(=O)c1ccc(OCc2cccc([C@H]3O[C@H](CO)[C@@H](O)[C@H](O)[C@@H]3O)c2)cc1` [Compound 264, N-methyl-4-[[3-[(2R,3S,4R,5S,6R)-3,4,5-trihydroxy-6-(hydroxymethyl)tetrahydropyran-2-yl]phenyl]methoxy]benzamide] has a Kd (FimH-CRD [2]) of 30.8 ± 9.1 nM.

In the case of `CC(C)C(=O)Nc1ccc(Oc2cccc([C@H]3O[C@H](CO)[C@@H](O)[C@H](O[C@H]4O[C@H](CO)[C@@H](O)[C@H](O)[C@@H]4O)[C@@H]3O)c2)cc1` [Compound 273, N-[4-[3-[(2R,3R,4R,5R,6R)-3,5-Dihydroxy-6-(hydroxymethyl)-4-[(2R,3S,4S,5S,6R)-3,4,5-trihydroxy-6-(hydroxymethyl)tetrahydropyran-2-yl]oxy-tetrahydropyran-2-yl]phenoxy]phenyl]-2-methyl-propanamide], the IC50 (FimH-CRD [1]) is reported as 38 nM, the Kd (FimH-CRD [1]) is reported as 12.1 ± 5.7 nM and the Kd (FimH-CRD [2]) is reported as 21.8 ± 5.2 nM.

For `COC(=O)COc1cccc([C@H]2O[C@H](CO)[C@@H](O)[C@H](O[C@H]3O[C@H](CO)[C@@H](O)[C@H](O)[C@@H]3O)[C@@H]2O)c1` [Compound 286, Methyl 2-[3-[(2R,3R,4R,5R,6R)-3,5-dihydroxy-6-(hydroxymethyl)-4-[(2R,3S,4S,5S,6R)-3,4,5-trihydroxy-6-(hydroxymethyl)tetrahydropyran-2-yl]oxy-tetrahydropyran-2-yl]phenoxy]acetate], the IC50 (FimH-CRD [1]) was 63 nM, the Kd (FimH-CRD [1]) was 17.4 ± 4.8 nM and the Kd (FimH-CRD [2]) was 35.1 ± 16.7 nM.

`OC[C@H]1O[C@H](c2cccc(Br)c2)[C@@H](O)[C@@H](O)[C@@H]1O` [Intermediate C, (2R,3S,4R,5S,6R)-2-(3-bromophenyl)-6-(hydroxymethyl)tetrahydro-2H-pyran-3,4,5-triol] showed a Kd (FimH-CRD [1]) of 24 ± 5 nM and a Kd (FimH-CRD [2]) of 27 nM.

Source: patent US20130261077A1 (priority 2012, published 2013)
